Drawing on patent publication US10988477B2 (Merck Patent GmbH, priority 2018, dated 2021), this text covers IC50 and EC50 for 14 compounds.

Usually IC50 stands for the concentration needed to halve the response being measured.

The target of one assay is GCN2 kinase (Homo sapiens, UniProt Q9P2K8). Kind of assay: GCN2 enzyme inhibition assay (Transcreener ADP2 fluorescence polarization). In kind it is biochemical. The note with it: 280 μM ATP, 4 nM GCN2 kinase. In outline: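 Run at 25 °C in 25 mM Tris-HCl pH 7.5, 50 mM NaCl, 10 mM MgCl2, 1 mM DTT with 4 nM GCN2, 280 μM ATP and 200 μM (RS)7 peptide; compound (0–8 μM final) preincubated 10 min, reaction 1 h. ADP read by antibody/tracer FP; IC50 and Ki(app) from tight-binding fit.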
Chain of GCN2 kinase (Q9P2K8 whole entry): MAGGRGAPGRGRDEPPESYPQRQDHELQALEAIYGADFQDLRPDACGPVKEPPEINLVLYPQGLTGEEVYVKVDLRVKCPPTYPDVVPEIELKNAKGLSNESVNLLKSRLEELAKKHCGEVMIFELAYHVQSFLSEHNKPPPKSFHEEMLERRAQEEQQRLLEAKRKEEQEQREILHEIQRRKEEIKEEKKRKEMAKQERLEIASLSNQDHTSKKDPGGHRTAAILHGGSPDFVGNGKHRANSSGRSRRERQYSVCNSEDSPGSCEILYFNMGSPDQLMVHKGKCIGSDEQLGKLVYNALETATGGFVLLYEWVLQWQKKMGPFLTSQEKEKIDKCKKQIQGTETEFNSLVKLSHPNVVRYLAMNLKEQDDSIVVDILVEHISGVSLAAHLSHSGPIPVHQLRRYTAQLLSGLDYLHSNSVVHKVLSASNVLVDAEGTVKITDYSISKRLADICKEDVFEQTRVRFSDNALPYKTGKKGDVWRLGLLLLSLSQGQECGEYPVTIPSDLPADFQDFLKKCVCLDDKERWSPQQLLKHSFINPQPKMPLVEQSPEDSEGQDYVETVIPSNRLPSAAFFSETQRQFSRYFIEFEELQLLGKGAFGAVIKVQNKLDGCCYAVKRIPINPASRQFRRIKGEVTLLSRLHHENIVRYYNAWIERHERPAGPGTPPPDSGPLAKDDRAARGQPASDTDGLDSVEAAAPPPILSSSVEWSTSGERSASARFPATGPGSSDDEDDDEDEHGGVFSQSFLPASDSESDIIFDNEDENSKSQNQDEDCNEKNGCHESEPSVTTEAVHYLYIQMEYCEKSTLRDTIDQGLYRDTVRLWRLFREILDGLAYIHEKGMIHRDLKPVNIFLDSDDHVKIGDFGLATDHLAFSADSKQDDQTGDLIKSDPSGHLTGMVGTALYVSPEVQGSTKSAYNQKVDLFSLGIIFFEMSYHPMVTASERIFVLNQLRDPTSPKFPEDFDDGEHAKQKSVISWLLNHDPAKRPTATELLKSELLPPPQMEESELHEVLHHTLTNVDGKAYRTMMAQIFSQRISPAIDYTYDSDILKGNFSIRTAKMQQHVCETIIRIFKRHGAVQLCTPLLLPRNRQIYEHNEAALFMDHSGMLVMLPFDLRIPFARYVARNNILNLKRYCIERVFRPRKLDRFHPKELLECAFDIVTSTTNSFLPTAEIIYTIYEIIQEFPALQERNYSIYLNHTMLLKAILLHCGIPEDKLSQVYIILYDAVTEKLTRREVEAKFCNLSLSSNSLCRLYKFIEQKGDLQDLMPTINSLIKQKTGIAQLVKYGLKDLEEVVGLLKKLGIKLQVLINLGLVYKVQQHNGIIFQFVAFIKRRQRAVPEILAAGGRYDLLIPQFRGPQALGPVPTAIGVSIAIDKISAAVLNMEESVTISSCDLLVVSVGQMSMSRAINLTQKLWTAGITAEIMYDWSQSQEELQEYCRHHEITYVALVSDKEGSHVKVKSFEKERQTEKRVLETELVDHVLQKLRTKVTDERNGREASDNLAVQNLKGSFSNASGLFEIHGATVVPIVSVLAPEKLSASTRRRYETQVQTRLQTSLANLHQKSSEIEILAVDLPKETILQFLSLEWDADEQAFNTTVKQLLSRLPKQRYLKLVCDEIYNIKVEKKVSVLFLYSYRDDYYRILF
For orientation: Polarisation of emitted light reports the rotation of a fluorescent probe.

Assay [1] deals with primary human pan T-cells. Kind of assay: Human IL-2 assay for GCN2 inhibition (IL-2 secretion by T cells in low amino acid condition). It is filed as cell-based. As to conditions: T-cell; IL-2 secretion from human T cells, anti-CD3/CD28 stimulation, 96 hours; read-out: IL2/T-cell EC50. The source says:
Tumor microenvironment is profoundly immuno-suppressive. This may be attributed to the depletion of amino acids (like arginine and tryptophan) which triggers the activation of GCN2 in immune cells, including T cell and myeloid cells. In T cells, activation of GCN2 leads to reduce effector functions of CD8 T cells and induction and/or maintenance of immuno-suppressive T-regs. Inhibition of that immuno-suppressive response by GCN2 inhibitors enables an anti-cancer immune response by activating effector T-cells. Herein we describe an in-vitro system we established using human T-cells stimulated in low amino acid condition in order to engage the GCN2 biology. The method described involves the modulation of IL-2 levels secreted by human T cells in responses to the GCN2 inhibitors disclosed herein.
Amino acid-free RPMI was reconstituted with all but one of the amino acids found in standard RMPI (e.g. Arginine, Tryptophan), 10% charcoal-stripped fetal bovine serum, 100 Units/mL penicillin and 0.1 mg/mL streptomycin. Primary human pan T-cells were isolated using Pan T Cell Isolation Kit, human (MACS Miltenyi biotech Cat #Order no. 130-096-535) from apheresis cones and 5×104 pan T-cells per well. The purified T cells are seeded in Nunc™ 96-Well Polystyrene Round Bottom Microwell Plates (the cells are rested in No TRP media in a 15 ml falcon tube in the incubator for 30-45 minutes while titrations for tryptophan and the GCN2 inhibitor compound are made) A plate matrix was developed to titrate both a GCN2 inhibitor and the amino acid of interest ranging from “No Amino Acid” condition, up to the concentration found in the regular RPMI media (20 μM for TRP and 950 μM for Arginine). The cells were incubated for 30 min at 37° C. with the GCN2 inhibitor and then stimulated with 5×104 anti-CD3/CD28 Dynabeads® per well. After 96 hours of incubation the IL-2 level in the supernatant were measured using ELISA (R&D systems Cat #DY202 (Human IL-2 DuoSet ELISA). Data were plotted in GraphPad Prism software and EC50 is calculated.

Assay [2] has as its target intracellular GCN2 (phosphorylation of the GCN2 substrate eIF2α) (Homo sapiens, UniProt Q9P2K8). Kind of assay: GCN2 cellular inhibition assay (AlphaScreen SureFire P-eIF2α Ser51, borrelidin-treated U2OS cells). As to conditions: biomarker assay, phosphorylated eIF2α Ser51 in borrelidin-treated U2OS cells. In kind it is cell-based. The essentials:
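U2OS, overnight attach; cpd 4-fold serial dil. from 40 μM final; borrelidin 10 μM, 1 h 37 °C/5% CO2; lyse; AlphaScreen P-eIF2α Ser51 (acceptor 2 h, donor overnight, RT, dark); % inhib. vs borrelidin-only.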

Chain of intracellular GCN2 (phosphorylation of the GCN2 substrate eIF2α) (Q9P2K8 whole entry): as above

Regarding `C[C@H]1[C@@H](CNS(C)(=O)=O)CCCN1c1cc(-c2cnc3ccc(C(F)F)nn23)ncn1` (stereo in doubt) [II-755, N-(((2S,3R)-1-(6-(6-(difluoromethyl)imidazo[1,2-b]pyridazin-3-yl)pyrimidin-4-yl)-2-methylpiperidin-3-yl)methyl)methanesulfonamide], the IC50 at GCN2 kinase (compounds of Formula II) was more than 1000 nM. Also, the EC50 in assay [1] was in the range of 100 to 500 nM.
Take `C[C@H]1CC(F)(F)C(CNS(C)(=O)=O)CN1c1cc(-c2cnc3ccc(C(F)F)nn23)ncn1` (stereo in doubt) [II-778, N-(((3R,6S)-1-(6-(6-(difluoromethyl)imidazo[1,2-b]pyridazin-3-yl)pyrimidin-4-yl)-4,4-difluoro-6-methylpiperidin-3-yl)methyl)methanesulfonamide]: the EC50 in assay [1] was more than 500 nM.
For `Cc1n[nH]cc1[C@@H]1CN(c2ccnc(-c3cnc4cnc(C(F)(F)F)cn34)n2)C[C@H](C)O1` (stereo in doubt) [IV-763, (2S,6R)-2-methyl-6-(3-methyl-1H-pyrazol-4-yl)-4-(2-(6-(trifluoromethyl)imidazo[1,2-a]pyrazin-3-yl)pyrimidin-4-yl)morpholine], the figures for the IC50 (against GCN2 kinase (compounds of Formula IV); in assay [2] (compounds of Formula IV)) were less than 10 nM and less than 500 nM, respectively. Further, the EC50 in assay [1] is 100 to 500 nM.
`C[C@H]1[C@@H](CNS(C)(=O)=O)N(C2CC2)CCN1c1cc(-c2cnc3ccc(C(F)F)nn23)ncn1` [II-752, N-(((2R,3S)-1-cyclopropyl-4-(6-(6-(difluoromethyl)imidazo[12-b]pyridazin-3-yl)pyrimidin-4-yl)-3-methylpiperazin-2-yl)methyl)methanesulfonamide]: the IC50 is less than 10 nM against GCN2 kinase (compounds of Formula II) and less than 500 nM in assay [2] (compounds of Formula II). For the same compound, the EC50 in assay [1] was less than 100 nM.
In the same order, the values of `Cc1[nH]ncc1[C@H]1CN(c2cc(-c3cnc4ccc(C(F)(F)F)nn34)ncn2)C[C@@H](C)O1` [II-768, (2R,6S)-2-methyl-6-(5-methyl-1H-pyrazol-4-yl)-4-(6-(6-(trifluoromethyl)imidazo[1,2-b]pyridazin-3-yl)pyrimidin-4-yl)morpholine] are less than 10 nM, less than 500 nM and more than 500 nM.
On GCN2 kinase (compounds of Formula II), `CS(=O)(=O)NC[C@@H]1CN(c2cc(-c3cnc4ccc(C(F)F)nn34)ncn2)C[C@H](C(F)(F)F)O1` [II-771, N-(((2S,6R)-4-(6-(6-(difluoromethyl)imidazo[1,2-b]pyridazin-3-yl)pyrimidin-4-yl)-6-(trifluoromethyl)morpholin-2-yl)methyl)methanesulfonamide] showed an IC50 of 10 to 1000 nM. In addition, the EC50 in assay [1] was in the range of 100 to 500 nM.
In the same order, the values of `C[C@H](NS(C)(=O)=O)[C@@H]1CN(c2cc(-c3cnc4ccc(C(F)F)nn34)ncn2)CCO1` [II-772] are 10 to 1000 nM and 100 to 500 nM.
With `C[C@H]1CN(c2cc(-c3cnc4ccc(C(F)F)nn34)ncn2)C[C@@H](CNS(C)(=O)=O)C1(F)F` [II-773, N-(((3S,5S)-1-(6-(6-(difluoromethyl)imidazo[1,2-b]pyridazin-3-yl)pyrimidin-4-yl)-4,4-difluoro-5-methylpiperidin-3-yl)methyl)methanesulfonamide], the EC50 in assay [1] was less than 100 nM.
With `CS(=O)(=O)NC[C@H]1C[C@@H](C2CC2)CN(c2cc(-c3cnc4ccc(C(F)F)nn34)ncn2)C1` [II-774, N-(((3S,5S)-5-cyclopropyl-1-(6-(6-(difluoromethyl)imidazo[12-b]pyridazin-3-yl)pyrimidin-4-yl)piperidin-3-yl)methyl)methanesulfonamide], the EC50 in assay [1] is less than 100 nM.
Same read-out and setting: as for `CS(=O)(=O)NCC1CN(c2cc(-c3cnc4ccc(C(F)F)nn34)ncn2)CC2(CC2)C1(F)F` (stereo not drawn) [II-775, N-((5-(6-(6-(difluoromethyl)imidazo[1,2-b]pyridazin-3-yl)pyrimidin-4-yl)-8,8-difluoro-5-azaspiro[2.5]octan-7-yl)methyl)methanesulfonamide], the figure is 100 to 500 nM; as for `CC1(C)CN(c2cc(-c3cnc4ccc(C(F)F)nn34)ncn2)C[C@@H](CNS(C)(=O)=O)O1` [II-776, (S)—N-((4-(6-(6-(difluoromethyl)imidazo[1,2-b]pyridazin-3-yl)pyrimidin-4-yl)-6,6-dimethylmorpholin-2-yl)methyl)methanesulfonamide], 100 to 500 nM.
In the case of `CS(=O)(=O)NCC1CCCN(c2cc(-c3cnc4ccc(C(F)F)nn34)cc(OC3CNC3)n2)C1` (stereo not drawn) [II-779, N-((1-(6-(azetidin-3-yloxy)-4-(6-(difluoromethyl)imidazo[1,2-b]pyridazin-3-yl)pyridin-2-yl)piperidin-3-yl)methyl)methanesulfonamide], the EC50 in assay [1] was more than 500 nM.
As for `C[C@H]1C[C@@H](c2c[nH]nc2F)CN(c2ccnc(-c3cnc4cnc(C(F)(F)F)cn34)n2)C1` [IV-767], the IC50 against GCN2 kinase (compounds of Formula IV) is less than 10 nM; in assay [2] (compounds of Formula IV), less than 500 nM. For the same compound, the EC50 in assay [1] is 100 to 500 nM.
The like results for `Cc1n[nH]cc1[C@H]1C[C@@H](O)CN(c2ccnc(-c3cnc4cnc(C(F)(F)F)cn34)n2)C1` [IV-776, (3R,5R)-5-(3-methyl-1H-pyrazol-4-yl)-1-(2-(6-(trifluoromethyl)imidazo[1,2-a]pyrazin-3-yl)pyrimidin-4-yl)piperidin-3-ol] were, in that order, less than 10 nM, 500 to 5000 nM and more than 500 nM.
